In US7541375B2, “Azole derivatives and pharmaceutical compositions containing them” (Laboratoires Serono SA, priority 2001, dated 2009):
“And” between values parts separate entries of the source, which are not always exact repeats. Equal values may be shown once.

Key:
[1] = test system: Colon 205 cell (ATCC CCL-222); experiment: Colon 205 cell anti-proliferation assay; type: cell-based; settings: Colon 205 cells, 2×10^3 cells/well
Description: (§1) Compounds of the invention were tested for anti-proliferation activity against colon tumors (Colo205, HT-29, C26 and SW660 cell lines) by procedures described in Example 40 above. 2×10^3 cells/well used.

[2] = test system: ovarian cancer OVCAR-3 cells; experiment: OVCAR-3 tumor cell proliferation assay; type: cell-based; settings: OVCAR-3, ATP lite cell proliferation kit
[3] = target: MEK-1 (constitutively active MEK1EE) (Homo sapiens, UniProt Q02750, S218E/S222E); experiment: MEK-1 enzyme assay (HTRF, phosphorylation of ERK2K52A); type: biochemical; settings: 3 μM ATP, 2 hours room temperature
Sequence of MEK-1 (constitutively active MEK1EE) (Q02750 whole entry S218E/S222E, species assumed): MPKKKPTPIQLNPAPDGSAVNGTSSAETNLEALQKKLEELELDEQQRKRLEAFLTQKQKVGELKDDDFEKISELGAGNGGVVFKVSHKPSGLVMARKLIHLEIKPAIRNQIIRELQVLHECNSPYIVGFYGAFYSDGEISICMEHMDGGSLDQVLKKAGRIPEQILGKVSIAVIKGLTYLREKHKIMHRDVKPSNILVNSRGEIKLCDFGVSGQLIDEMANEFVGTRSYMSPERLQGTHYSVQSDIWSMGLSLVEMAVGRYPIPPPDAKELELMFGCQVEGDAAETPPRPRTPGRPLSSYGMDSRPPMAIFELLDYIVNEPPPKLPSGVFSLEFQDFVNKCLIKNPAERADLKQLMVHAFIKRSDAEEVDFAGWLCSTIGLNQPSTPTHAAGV
Description: A 50 μl mixture containing 15 nM constitutively active MEK1EE and 300 nM of ERK2K52A were incubated either in the presence or absence of the compounds of the invention in 1% DMSO and 1× kinase buffer containing 3 μM ATP, […], […], 1 mM DTT and 100 μM Na3VO4 in Wallac 96 well black plates for 2 hours at room temperature. At the end of the incubation the enzyme reaction was quenched by adding 50 μl of assay buffer containing […] Tris-HCl, 50 mM EDTA, 0.1% BSA and a mixture of 1.25 μg/ml europium labeled anti-phosphotyrosine mAb and 5 μg/ml allophycocyanin labeled (APC) anti-GST antibody. Plates were agitated on a plate shaker for 30 minutes and phosphorylation of the ERK2K52A substrate was measured by homogenous time resolved fluorescence (HTRF) at 340 nm excitation and […] emission filters on the VICTOR V fluorescence plate reader. The results are of phosphorylation of ERK-2, with inhibition occurring at the MEK-1 level. Results were as follows for the specified compounds: […]

[4] = test system: Lung Carcinoma (A549 cell line; ATCC CCL-185)
Description: (§2) Breast cancer MCF-7 cells or ovarian cancer OVCAR-3 cells were plated in 96 well Packard white plates at 4×10^3 cells/well and cultured overnight at 37° C. in 5% CO2. The below specified test compounds were serially diluted in 100% DMSO and subsequently added to cells to reach a final concentration of 0.5% DMSO. MCF-7 and OVCAR-3 (ATCC HTB-161) plates were incubated for an additional 4 to 5 days respectively at 37° C. and 5% CO2 and cell proliferation was quantitated using the ATP lite cell proliferation kit (Packard).
(§3) (R) 4-iodo-benzoic acid 1-imidazol-1-yl methyl-2-phenoxy-ethyl ester (Example No. 1) was tested for anti-proliferation activity against additional tumor cell types as specified below by procedures described in Example 39 above. American Type Culture Collection (ATCC) deposit numbers are indicated below for many of the tested cell types. Results express, as follows, the concentration of compound of the invention (μM) required to inhibit the proliferation of the tumor cells by 50 percent relative untreated controls (i.e. IC50 (μM)).

[5] = test system: Chronic Myelogenous Leukemia (K562 cell line; ATCC CCL-243)
Description: as §2, §3

[6] = test system: Pancreatic Epithelioid Carcinoma (PANC-1 cell line; ATCC CRL-1469)
Description: as §2, §3

[7] = test system: Kidney Adeno Carcinoma (ACHN cell line; ATCC CRL-1611)
Description: as §2, §3

[8] = test system: Promyelocytic Leukemia (HL-60 cell line; ATCC CRL-240)
Description: as §2, §3

[9] = test system: Prostate Adenocarcinoma (PC-3 cell line; ATCC CRL-1435)
Description: as §2, §3

[10] = test system: Breast Ductal Carcinoma (T47D cell line; ATCC HTB-133)
Description: as §2, §3

[11] = test system: Pancreatic Carcinoma (MIA PaCa-2 cell line; ATCC CRL-1420)
Description: as §2, §3

[12] = test system: Lung Carcinoma (PC-6 cell line)
Description: as §2, §3

[13] = test system: Colon Adeno Carcinoma (Grade II) (HT-29 cell line; ATCC HTB-38); settings: HT-29 cell line (Example 42)
Description: as §2, §3

[14] = test system: Colon Adeno Carcinoma (DLD-1 cell line; ATCC CCL-221)
Description: as §2, §3

[15] = test system: Neuroepithelioma (SK-N-MC cell line; ATCC HTB-10)
Description: as §2, §3

[16] = test system: Malignant Melanoma (SK-MEL-5 cell line; ATCC HTB-70)
Description: as §2, §3

[17] = test system: Breast Adeno Carcinoma (MCF-7 cell line); settings: MCF-7 cell line (Example 42)
Description: as §2, §3

[18] = test system: Kidney Carcinoma (A498 cell line; ATCC HTB-44)
Description: as §2, §3

[19] = test system: primary rat granulosa cell; settings: compound at 10 nM to 100 nM in the presence of picomolar FSH (2 to 5 picomolar)
Description: Cells were plated at 5000, 8,000 and 20,000 cells/well/200 μl of GAB medium on poly-D-lysine coated 96-well tissue culture plates. Plates were incubated at 37° C. in a 5% CO/95% air incubator for 3 days. […] The compound of the invention and picomolar FSH were then added to the cultures. Cells were incubated @ 37° C. in 5% CO2. Three days later, cell supernatants were collected and diluted 1:100 in GAB medium for measurement of estradiol by RIA. The RIA was performed according to manufacturer directions except that an estradiol standard was prepared in absolute ethanol at 100 ng/ml and then further diluted in GAB medium, instead of kit buffer.

[20] = test system: Colon C26 cell; experiment: Colon C26 cell anti-proliferation assay; type: cell-based, murine; settings: Colon C26 cells, 2×10^3 cells/well
Description: as §1

[21] = target: MEK-1/ERK-2 (Homo sapiens, UniProt Q02750, S218E/S222E); experiment: MEK-1/ERK-2 enzyme cascade assay (33P incorporation into MBP biotin); type: biochemical; settings: 3 μM ATP, phosphorylation of myelin basic protein
Sequence of MEK-1/ERK-2 (Q02750 whole entry S218E/S222E): as the sequence (Q02750 whole entry S218E/S222E, species assumed) above
Description: MEK-1/ERK-2 Enzyme Cascade Assay
A 50 μl mixture containing 40 nM of constitutively active MEK1EE, 160 nM of ERK2 and 10 μM MBP biotin were incubated in the presence or absence of the below compound of the invention in 1% DMSO and 1× kinase buffer containing 3 μM ATP, 50 mM Tris-HCl pH 8.0, 10 mM MgCl2, 1 mM DTT, 100 μM Na3VO4 and […] ^33P-γATP in Wallac 96 well white plates for 2 hours at room temperature. At the end of the incubation the enzyme reaction was quenched by adding 200 μl Phosphate buffered saline (PBS) solution containing 1.25 mg/ml Streptavidin SPA beads, 50 mM EDTA and 0.1% Triton 100 and incubated further for 12-14 hours at room temperature. ^33P-γATP incorporation into MBP biotin was measured using the top counts. The assay read-out is phosphorylation of myelin basic protein, which is a representative substrate of ERK-2-phos. This assay is a further confirmatory screen of the assay of Example 38 above.

[22] = test system: HT-29 cell (ATCC HTB-38); experiment: HT-29 cell anti-proliferation assay; type: cell-based; settings: HT-29 cells, 2×10^3 cells/well
Description: as §1

[23] = test system: Breast cancer MCF-7 cells; experiment: MCF-7 tumor cell proliferation assay; type: cell-based; settings: MCF-7, ATP lite cell proliferation kit
[24] = test system: SW 660 cell (ATCC CCL-227); experiment: SW 660 cell anti-proliferation assay; type: cell-based; settings: SW 660 cells, 2×10^3 cells/well
Description: as §1

[25] = test system: TNF release (TNF-α); experiment: Inhibition of TNF-alpha production in LPS-stimulated mice; type: in vivo; settings: −15 mn before LPS
Description: Injection of lipopolysaccharide (LPS) induces a rapid release of soluble tumor necrosis factor (TNF-α) into the periphery. This model is used to identify potential blockers of TNF release in vivo
The potency of compounds of the invention as inhibitors of serum TNFα elevation in mice treated with LPS is determined as follows:
• For per oral (p.o.) administration, compounds of the invention are formulated in 0.5% carboxymethyl cellulose/0.25% Tween 80 in saline and given orally via gavage […] to LPS administration. Dexamethasone is used as the reference compound and given at 0.1 mg/kg per orally. • C3/hen female mice (Iffa-Credo, France) are injected intraperitoneally with 0.3 mg/kg LPS (Escherichia coli, Serotype 0111:B4, Sigma Chemical Co., St. Louis, Mo.) and sacrificed 90 min later by CO2 asphyxiation. Blood is immediately taken from caudal vena cava and plasma prepared and frozen at −80° C. Each group of treatment contained 6 animals.

[26] = test system: murine colon carcinoma C26 cells; experiment: Growth of tumors induced in CDF1 mice with murine colon carcinoma C26 cells; type: in vivo
Description: The aim of this study was to evaluate the effects of Example No. 30 in FIG. 1: […] Control group (empty circles) was treated with NP3S (5% N-methylpyrrolidone/30% PEG400/25% PEG200/20% Propylene Glycol in Saline) per os bid. […] Drugs treatment started 8 days following C26 cell injection and then continued for 13 days. […] Tumor volume and body weight were monitored every three days from day 8 until day 20.

O=C(OC(COc1ccccc1)Cn1ccnc1)c1ccc(I)cc1 (stereo not shown) [Example 1, 4-Iodo-benzoic acid 1-imidazol-1-yl methyl-2-phenoxy-ethyl ester]
IC50 [1]: 1.4 µM | IC50 [2]: 25 µM | IC50 [3]: 0.039 ± 0.012 µM | IC50 [4]: 25 µM | IC50 [5]: 33 µM | IC50 [6]: > 100 µM | IC50 [7]: > 100 µM | IC50 [8]: 3.6 µM | IC50 [9]: 24 µM | IC50 [10]: 11 µM | IC50 [11]: 3.1 µM | IC50 [12]: 43 µM | IC50 [13]: 4 µM | IC50 [14]: 36 µM | IC50 [15]: 6.7 µM | IC50 [16]: 11 µM | IC50 [17]: 33 µM | IC50 [18]: 54 µM | estradiol production [19]: induces estradiol production | IC50 [20]: 2.33 µM | IC50 [21]: 0.036 ± 0.008 µM | IC50 [22]: 3.5 µM | IC50 [23]: 15 ± 7.1 µM | IC50 [24]: 2.1 µM

C[C@@H]1C[C@H]2[C@@H]3CCC4=CC(=O)C=C[C@]4(C)[C@@]3(F)[C@@H](O)C[C@]2(C)[C@@]1(O)C(=O)CO [Dexamethasone, reference compound]
TNF Release vs LPS inj. % of inhibition Mean ± SEM ([25]; 0.1 mg/kg p.o.): 86 ± 6% and 88 ± 1%

O=C(NC(COc1ccc(F)cc1)Cn1ccnc1Cl)c1ccc(I)cc1 (stereo not shown) [Example 34, N-[1-(2-Chloro-imidazol-1-ylmethyl)-2-(4-fluoro-phenoxy)-ethyl]-4-iodo-benzamide]
IC50 ([20]; Mus musculus): 1.25 µM

N#Cc1ccc(OCC(Cn2ccnc2Cl)NC(=O)c2ccc(I)cc2)cc1 (stereo not shown) [Example 35, N-[1-(2-Chloro-imidazol-1-ylmethyl)-2-(4-cyano-phenoxy)-ethyl]-4-iodo-benzamide]
IC50 ([20]; Mus musculus): 0.3 µM

O=C(N[C@@H](COc1ccccc1)Cn1ccnc1)c1ccc(I)cc1 [Example 27, N-(1-imidazol-1-ylmethyl-2-phenoxy-ethyl)-4-iodo-benzamide]
IC50 [1]: 2.1 µM | IC50 ([2]; Homo sapiens): 50 µM | IC50 [3]: 0.092 µM | IC50 [21]: 0.085 µM | IC50 ([22]; Homo sapiens): 2.8 µM | TNF Release vs LPS inj. % of inhibition Mean ± SEM ([25]; 12.5 mg/kg p.o.): 32 ± 5% | TNF Release vs LPS inj. % of inhibition Mean ± SEM ([25]; 50 mg/kg p.o.): 39 ± 3% | IC50 [24]: 2.2 µM

O=C(NC(COc1ccc(F)cc1)Cn1ccnc1)c1ccc(I)cc1 (stereo not shown) [Example 30, N-[2-(4-Fluoro-phenoxy)-1-imidazol-1-ylmethyl-ethyl]-4-iodo-benzamide]
IC50 [3]: 0.021 µM | tumor-induced body weight loss ([26]; 50 mg/kg p.o. bid): significant prevention of tumor-induced body weight loss | tumor-induced body weight loss ([26]; 100 mg/kg p.o. bid): significant prevention of tumor-induced body weight loss | inhibition of tumor growth rate evaluated at day 20 ([26]; 100 mg/kg p.o. bid, day 20, vs NP3S control): 37% | tumor growth vs NP3S control group ([26]; 100 mg/kg p.o. bid, significant from day 11 to day 20): reduced tumor growth | TNF Release vs LPS inj. % of inhibition Mean ± SEM ([25]; 12.5 mg/kg p.o.): 77 ± 2% | TNF Release vs LPS inj. % of inhibition Mean ± SEM ([25]; 50 mg/kg p.o.): 85 ± 3%

O=C(OC(COc1ccc([N+](=O)[O-])cc1)Cn1ccnc1)c1ccc(I)cc1 (stereo not shown) [Example 18, 4-Iodo-benzoic acid 2-imidazol-1-yl-1-(4-nitro-phenoxymethyl)-ethyl ester]
IC50 [3]: 0.015 µM | IC50 ([20]; Mus musculus): 0.57 µM

COc1ccc(C(=O)OC(COc2ccccc2)Cn2ccnc2)cc1 (racemic) [4-methoxy-benzoic acid 1-imidazol-1-yl methyl-2-phenoxy-ethyl ester (racemic), 4-methoxy-benzoic acid 1-imidazol-1-yl methyl-2-phenoxy-ethyl ester]
IC50 [3]: 1.63 ± 0.241 µM | IC50 [21]: 1.78 ± 0.254 µM

O=P1(N(CCCl)CCCl)NCCCO1 (stereo not shown) [Cyclophosphamide, reference compound]
inhibition of tumor growth at day 20 ([26]; 50 mg/kg s.c. every third day, 5 treatments, day 20): 73% | tumor growth (tumor volume) ([26]; 50 mg/kg s.c. every third day, day 11 until day 20 (p<0.001)): significantly slowed down tumor growth | tumor-associated loss in body weight ([26]; 50 mg/kg s.c. every third day, from day 11): markedly prevented

COc1ccc(C(=O)O[C@@H](COc2ccccc2)Cn2ccnc2)cc1 [Example 6, (R)-4-Methoxy-benzoic acid 1-imidazol-1-yl methyl-2-phenoxy-ethyl ester]
IC50 [1]: 22.5 µM | IC50 ([2]; Homo sapiens): 40 µM | IC50 [3]: 0.86 ± 0.093 µM | IC50 [21]: 0.92 ± 0.174 µM | IC50 ([22]; Homo sapiens): 27.5 µM | IC50 ([23]; Homo sapiens, MCF7): 32.5 ± 3.5 µM | IC50 [24]: 20 µM

O=C(O[C@@H](COc1cccnc1)Cn1ccnc1)c1ccc(I)cc1 [Example 22, 4-Iodo-benzoic acid 1-imidazol-3-yl methyl-2-(pyridin-3-yloxy)-ethyl ester]
IC50 [3]: 0.011 µM | IC50 ([20]; Mus musculus): 1.08 µM
